According to US20240251792A1, “WEED CONTROL METHOD” (SYNGENTA CROP PROTECTION AG, priority 2021, published 2024):
Where two headings read alike, the source gives them in different places.

Assays:
Assay type in all cases: in vivo
ABUTH = experiment: Pre-emergence biological efficacy (Table 3); details: Abutilon theophrasti, 312 h, after 13 days, read-out: evaluation (100=total damage to plant; 0=no damage to plant)
Experimental: (§1) Seeds of weeds and/or crops were sown in standard soil in pots. After cultivation for one day under controlled conditions in a glasshouse (at 24/19° C., day/night; 16 hours light), the plants were sprayed with an aqueous spray solution derived from the formulation of the technical active ingredient in a small amount of acetone and a special solvent and emulsifier mixture referred to as AMA (11.12% Emulsogen EL360 TM+44.44% N-methylpyrrolidone+44.44% Dowanol DPM glycol ether), to create a 50 g/l solution which was then diluted using 0.2% Genapol X080 as diluent to give the desired final dose of test compound.
(§2) The test plants were then grown under controlled conditions in the glasshouse (at 24/18° C., day/night; 15 hours light; 50% humidity) and watered twice daily. After 13 days the test was evaluated (100=total damage to plant; 0=no damage to plant).

AMARE = experiment: Pre-emergence biological efficacy (Table 3); details: Amaranthus retroflexus, 312 h, 1000 g/ha, after 13 days, read-out: evaluation (100=total damage to plant; 0=no damage to plant)
Experimental: as §1, §2

ECHCG = experiment: Pre-emergence biological efficacy (Table 3); details: Echinochloa crus-galli, 312 h, 1000 g/ha, after 13 days, read-out: evaluation (100=total damage to plant; 0=no damage to plant)
Experimental: as §1, §2

IPOHE = experiment: Pre-emergence biological efficacy (Table 3); details: Ipomoea hederacea, 312 h, 1000 g/ha, after 13 days, read-out: evaluation (100=total damage to plant; 0=no damage to plant)
Experimental: as §1, §2

STEME = experiment: Pre-emergence biological efficacy (Table 3); details: 312 h, after 13 days, read-out: evaluation (100=total damage to plant; 0=no damage to plant)
Experimental: as §1, §2

ZEAMX = experiment: Pre-emergence biological efficacy (Table 3); details: 312 h, 1000 g/ha, after 13 days, read-out: evaluation (100=total damage to plant; 0=no damage to plant)
Experimental: as §1, §2

weeds and/or crops = experiment: Post-emergence biological efficacy (Table 4); details: 312 h, 1000 g/ha, evaluated after 13 days
Experimental: as §1, with “14 days” for “one day”, “F50” for “AMA”
as §2

[1] = STEME, read-out: damage to plant STEME (100=total damage; 0=no damage)
[2] = ZEAMX, read-out: damage to plant ZEAMX (100=total damage; 0=no damage)
[3] = Abutilon theophrasti, ABUTH, read-out: damage to plant ABUTH (100=total damage; 0=no damage)
[4] = Amaranthus retroflexus, AMARE, read-out: damage to plant AMARE (100=total damage; 0=no damage)
[5] = Echinochloa crus-galli, ECHCG, read-out: damage to plant ECHCG (100=total damage; 0=no damage)
[6] = Ipomoea hederacea, IPOHE, read-out: damage to plant IPOHE (100=total damage; 0=no damage)

SMILES | pest or weed control at 1000 g/ha (ABUTH) [%] | pest or weed control at 1000 g/ha (AMARE) [%] | pest or weed control at 1000 g/ha (ECHCG) [%] | pest or weed control at 1000 g/ha (IPOHE) [%] | pest or weed control at 1000 g/ha (STEME) [%] | plant injury at 1000 g/ha (ZEAMX) [%] | pest or weed control at 1000 g/ha (weeds and/or crops; [1]) [%] | pest or weed control at 1000 g/ha (weeds and/or crops; [2]) [%] | pest or weed control at 1000 g/ha (weeds and/or crops; [3]) [%] | pest or weed control at 1000 g/ha (weeds and/or crops; [4]) [%] | pest or weed control at 1000 g/ha (weeds and/or crops; [5]) [%] | pest or weed control at 1000 g/ha (weeds and/or crops; [6]) [%]
N#Cc1c(Cl)cccc1C(F)(F)C(=O)O [Compound 1-262, 2-(3-Chloro-2-cyano-phenyl)-2,2-difluoro-acetic acid] | 90 | 90 | 0 | 90 | 100 | 40 | 100 | 20 | 80 | 90 | 0 | 70
COc1c(F)cccc1C(F)(F)C(=O)O [Compound 1-306, 2,2-Difluoro-2-(3-fluoro-2-methoxy-phenyl)acetic acid] | 20 | 30 | 10 | 60 | 10 | 0 | 0 | 10 |  | 70 | 0 | 60
COc1c(F)ccc(F)c1C(F)(F)C(=O)O [Compound 1-314, 2-(3,6-Difluoro-2-methoxyphenyl)-2,2-difluoroacetic acid] | 0 | 0 | 0 | 0 | 0 | 0 | 0 | 10 | 0 | 60 | 0 | 10
COc1c(Cl)cccc1C(F)(F)C(=O)O [Compound 1-317, 2-(3-chloro-2-methoxy-phenyl)-2,2-difluoro-acetic acid] | 100 | 90 | 90 | 90 | 100 | 70 | 100 | 60 |  | 100 | 60 | 90
CSc1c(Cl)cccc1C(F)(F)C(=O)O [Compound 1-356, 2-(3-Chloro-2-(methylthio)phenyl)-2,2-difluoroacetic acid] | 30 | 50 | 0 | 50 | 30 | 10 | 70 | 10 | 60 | 40 | 0 | 70
O=C(O)C(F)(F)c1cccc2c1OC(F)(F)O2 [Compound 1-385, 2-(2,2-Difluoro-1,3-benzodioxol-4-yl)-2,2-difluoro-acetic acid] | 90 | 60 | 50 | 70 | 50 | 50 | 100 | 40 | 90 | 90 | 50 | 70
O=C(O)C(F)(F)c1c(Cl)ccc2c1OC(F)(F)O2 [Compound 1-389, 2-(5-Chloro-2,2-difluorobenzo[d][1,3]dioxol-4-yl)-2,2-difluoroaceticacid] | 50 | 60 | 10 | 60 | 60 | 10 | 50 | 0 |  | 80 | 10 | 70
Cc1noc2cccc(C(F)(F)C(=O)O)c12 [Compound 1-391, 2,2-Difluoro-2-(3-methyl-1,2-benzoxazol-4-yl)acetic acid] | 40 | 70 | 40 | 60 | 20 | 10 | 50 | 10 |  | 70 | 30 | 80
Cc1noc2ccc(Cl)c(C(F)(F)C(=O)O)c12 [Compound 1-395, 2-(5-Chloro-3-methyl-1,2-benzoxazol-4-yl)-2,2-difluoro-acetic acid] | 10 | 30 | 20 | 50 | 10 | 0 | 20 | 0 | 20 | 40 | 10 | 70
Cc1ccc2onc(C)c2c1C(F)(F)C(=O)O [Compound 1-396, 2-(3,5-dimethylbenzo[d]isoxazol-4-yl)-2,2-difluoroacetic acid] | 0 | 0 | 0 | 0 | 0 | 30 | 0 | 10 |  | 10 | 0 | 60
O=C(O)C(F)(F)c1c(Cl)ccc2ccccc12 [Compound 1-401, 2-(2-chloronaphthalen-1-yl)-2,2-difluoroacetic acid] | 60 | 80 | 30 | 50 | 80 | 0 | 80 | 10 | 80 | 70 |  | 80
O=C(O)C(F)(F)c1c(F)ccc2cccnc12 [Compound 1-406, 2,2-Difluoro-2-(7-fluoro-8-quinolyl)acetic acid] | 60 | 80 | 0 | 60 | 50 | 10 | 70 | 40 | 70 | 80 | 20 | 80
O=C(O)C(F)(F)c1c(Cl)ccc2cccnc12 [Compound 1-407, 2-(7-Chloroquinolin-8-yl)-2,2-difluoroacetic acid] | 70 | 60 | 50 | 60 | 10 | 40 | 30 | 0 |  | 70 | 0 | 80
